Experimental data reported in patent publication US20240166687A1, “REGULATORY T CELL-INDUCING PEPTIDE AND COMPOSITION INCLUDING SAME FOR PREVENTING OR TREATING AUTOIMMUNE DISEASE” (IUCF-HYU (INDUSTRY-UNIVERSITY COOPERATION FOUNDATION …, priority 2021, published 2024).
Entries after “also recorded” stand apart in the source; their conditions may differ.

B1: KIKKVKKKGRKGSKIKKVKKKGRKGGKMLKKRSPLTTGVYVKMAATEAECEKQFQPYFIPIN (peptide)
chain: KIKKVKKKGRKGSKIKKVKKKGRKGGKMLKKRSPLTTGVYVKMAATEAECEKQFQPYFIPIN
notes: dNP2-ctCTLA-4 variant

How the values were obtained:
[1] = tested on: multiple sclerosis animal model; assay: Analysis of efficiency in multiple sclerosis (MS) animal model (MOG35-55/CFA + PTX); assay type: in vivo, C57BL/6 mice; conditions: for clinical symptoms (clinical score): 100 μg (5 mg/kg) intraperitoneally once a day from day 7 after PTX; for clinical symptoms (clinical score) / number of infiltrated lymphocytes in the spinal cord / number of Treg cells (spinal cord): comparator as named in the value; for number of infiltrated lymphocytes in the spinal cord / number of Treg cells (spinal cord): 100 μg intraperitoneally once a day from day 7
Method: 8-week-old female C57BL/6 mice were purchased from Orient Bio (Daejeon, Korea). All animal experiments were conducted in compliance with the animal experiment operation regulations of the Institutional Animal Care and Use Committee of Hanyang University. The mice were acclimatized for 2 weeks before the experiment. The mice were raised in a breeding room maintained at temperature 22±2° C. and 40-60% humidity with free access to feed. The light and dark cycles were adjusted at 12-hour intervals. Multiple sclerosis was induced by subcutaneous immunization using a MOG35-55/CFA emulsion PTX kit (Hooke Labs, Lawrence, MA, USA) according to the manufacturer's protocol. The mice were anesthetized with isoflurane and MOG35-55/CFA was subcutaneously injected bilaterally, followed by intraperitoneal injection of PTX (pertussis toxin) 2 hours and 24 hours later. The mice were randomly assigned to different groups after MOG immunization. Because paralysis due to immune response begins on day 7 after the injection of PTX, 100 μg (5 mg/kg) of the samples according to the present disclosure were intraperitoneally injected to the groups once a day from day 7. Each group was monitored every day after inducing multiple sclerosis and clinical symptoms were recorded. The clinical symptoms were evaluated based on the scoring system described in Table 2. The higher clinical scores indicate severer symptoms. The mice were euthanized at the end of the experiments and lymphocytes were isolated from the spinal cords. The isolated spinal cords were treated at 37° C. with 1 mg/mL of DNase 1 (10104159001; Sigma-Aldrich) and 1 mg/mL of collagenase D (11088866001; Sigma-Aldrich) and incubated at 80 rpm on a shaker for 40 minutes. After the enzyme treatment, 500 mM EDTA was added and lymphocytes were isolated by Percoll (GE Healthcare, Little Chalfont, UK) density-gradient centrifugation. The isolated infiltrated lymphocytes were restimulated with a cell stimulation cocktail (plus protein transport inhibitors) (ThermoFisher) at 37° C. for 4 hours and stained with anti-mouse CD4. The cells were fixed, permeabilized using a Foxp3/transcription factor staining buffer set (eBioscience) and stained with anti-mouse IFN-γ, anti-mouse IL-17 or anti-mouse Foxp3. The cells were analyzed using a FACS Canto flow cytometer and the FlowJo software version 10.7.1. For histological analysis, paraffin blocks of the spinal cord tissues were deparaffinized and treated with luxol fast blue. For combination staining, hematoxylin and eosin were used (Dako). The cells infiltrated in the white matter region of the spinal cord tissues were counted using the Image J software version 2.0.0. The increased number of Th1 and Th17 immune cells in the spinal cord means more severe multiple sclerosis, and the increased number of Treg cells means that the function of preventing or treating autoimmune disease such as multiple sclerosis is improved as the tolerance to self-antigens is maintained and the excessive response by the immune system is prevented.

[2] = tested on: Th17 cells differentiated from splenocytes isolated from mouse; assay: Analysis of effect under Th17 differentiation conditions (flow cytometry of IL-17A and Foxp3); assay type: cell-based; conditions: sample 2 μM; for effect of suppressing immune response (decrease of IL-17 and increase of Foxp3): flow cytometry 4 days later, comparator as named in the value (Th17/PBS control, K1, AP-K2); for effect of suppressing immune response compared to the dNP2-ctCTLA-4 group / order of the reduction of IL-17 and the increase of Foxp3 among AP-K2 variants: 4 days; for effect of suppressing immune response compared to the dNP2-ctCTLA-4 group: versus dNP2-ctCTLA-4 positive control
Description: Th17 cells are a subset of CD4 T cells. The Th17 cells are known to secrete a cytokine known as IL-17 and cause inflammation. This is the major cause of autoimmune disease. And, Treg cells (regulatory T cells) are known to suppress and regulate inflammation by expressing the transcription factor called Foxp3. Accordingly, since it is thought that the effect of preventing and treating autoimmune disease may be achieved by regulating inflammation by inhibiting Th17 cells (IL-17) and increasing Treg (Foxp3) cells, the effect of the peptides of the present disclosure was investigated.
Undifferentiated CD4 T cells (naive CD4 T cells) were isolated from splenocytes of 6- to 8-week-old C57BL/6 mice using a mouse undifferentiated CD4+ T cell (naive CD4 T cell) isolation kit (Miltenyi Biotec, Auburn, CA, USA) according to the manufacturer's protocols. For RNAseq, the undifferentiated CD4 T cells (naive CD4 T cells) from the Foxp3-GFP mice were purified, differentiated into Th17 cells and sorted into Foxp3^+ and Foxp3^− populations using a cell sorter (FACS Aria cell sorter BD Biosciences, Franklin Lakes, NJ, USA). The purified undifferentiated CD4 T cells (naive CD4 T cells) were activated with plate-bound anti-CD3 (2 or 5 μg/mL, 553057; BD Pharmingen, La Jolla, CA) and anti-CD28 (2 or 5 μg/mL, 553294; BD Pharmingen, La Jolla, CA) antibodies and differentiated by treating with the following cytokine cocktails in a 96-well plate for 3 or 4 days: Th0; recombinant human TGF-β(R&D Systems) 0.25 ng/mL. Th1; anti-IL-4 (11B11; 16-7041-85; eBioscience) 5 μg/mL, IL-2 (212-12; Peprotech, Rocky Hill, NJ) 50 U/mL, recombinant murine IL-12 (212-12; Peprotech) 2 ng/mL, recombinant human TGF-β (R&D Systems) for Th1 0.25 ng/mL. Th17; anti-IFN-γ (XMG1.2; 16-7311-85; eBioscience) 5 μg/mL, anti-IL-4 (11B11; 16-7041-85; eBioscience) 5 μg/mL, recombinant murine TGF-β (7666-MB, R&D Systems, Minneapolis, MN) 2 ng/mL, IL-6 (216-16; Peprotech) 30 ng/mL, IL-23 (1887-ML-101; R&D Systems) 20 ng/mL, IL-1β (401-ML-010; R&D Systems) 20 ng/mL, and IL-2 (Peprotech) 50 U/mL. Treg; IL-2 (Peprotech) 50 U/mL and TGF-β (R&D Systems) 0.5 ng/mL.
The cells were cotreated with the cytokine cocktails and the samples (2 μM). 4 days later, they were analyzed by flow cytometry using IL-17 and Foxp3 fluorescent antibodies. In some experiments, 5 μM PKC-η pseudosubstrate inhibitor (sc-3096; Santa Cruz) or 5 μM ERK inhibitor (UO126, 662005; Sigma) were also added.
For flow cytometric analysis of living cells only, dead cells were excluded using the Zombie Aqua™ fixable viability kit (Biolegend) before staining with antibodies at room temperature for 10 minutes. After washing, surface proteins of the differentiated Th1, Th17 and Treg cells were stained with monoclonal antibodies at 4° C. for 15 minutes. To determine intracellular cytokine levels, the cells were restimulated with a cell stimulation cocktail (plus protein transport inhibitors) (ThermoFisher) at 37° C. for 4 hours and then stained with surface marker antibodies. The cells were then fixed, permeabilized using a Foxp3/transcription factor staining buffer set (eBioscience) and stained with anti-mouse IFN-γ, anti-mouse IL-17 and anti-mouse Foxp3. The cells were analyzed using a FACS Canto II flow cytometer and the FlowJo software version 10.7.

Molecule | number of infiltrated lymphocytes in the spinal cord [1] | effect of suppressing immune response (decrease of IL-17 and increase of Foxp3) [2] | also measured
KIKKVKKKGRKGSKIKKVKKKGRKGGKMLKKRSPLTTGVYVKM (dNP2-KSY) [deleted variant of dNP2-ctCTLA-4] | significantly smaller number of infiltrated lymphocytes in the spinal cord as compared to the TAT-ctCTLA-4 group and the PBS group | – | clinical symptoms (clinical score) [1]: significantly superior in terms of clinical symptoms as compared to the TAT-ctCTLA-4 group and the PBS group
KIKKVKKKGRKGSKIKKVKKKGRKKMLKKRS (dNP2-K1) [deleted variant of dNP2-ctCTLA-4 with only the K motif] | significantly smaller number of infiltrated lymphocytes in the spinal cord as compared to the TAT-ctCTLA-4 group and the PBS group | exhibited the activity of inhibiting immune response | –
KMLKKRS (K1) [Example K1, single K motif of CTLA4 without CPP, fatty acid or linker] | – | did not show significant difference from Th17 (control group) | effect in the multiple sclerosis animal model (overall) ([1]; 100 μg intraperitoneally once a day from day 7 to day 18): does not show significant effect on its own in the multiple sclerosis animal model
KMLKKRSGGGGSKMLKKRS (K2(G4S)) [K2 (G4S)] | significantly number of infiltrated lymphocytes in the spinal cord as compared to the K1 group | the activity of inhibiting immune cells is significantly superior | clinical symptoms (clinical score) [1]: significantly remarkable superior result in clinical symptoms than the K1 group; number of Treg cells (spinal cord) [1]: larger number of Treg cells than the K1 group
KMLKKRSKMLKKRS (K2) [Example K2, two K motifs of CTLA4 linked, no linker] | significantly smaller number of infiltrated lymphocytes in the spinal cord than the PBS (control group) | significantly better effect of suppressing immune response than the PBS (control group); also recorded: significantly superior effect of suppressing immune response as compared to the PBS group | clinical symptoms (clinical score) [1]: significantly improved result for clinical symptoms as compared to the PBS group; effect of suppressing immune response compared to the dNP2-ctCTLA-4 group [2]: comparable effect
KMLKKRSKMLKKRSKMLKKRS (K3) [Example K3] | significantly number of infiltrated lymphocytes in the spinal cord as compared to the K1 group | significantly better effect of suppressing immune response than the PBS (control group); also recorded: significantly superior effect of suppressing immune response as compared to the PBS group | clinical symptoms (clinical score) [1]: significantly remarkable superior result in clinical symptoms than the K1 group; number of Treg cells (spinal cord) [1]: larger number of Treg cells than the K1 group; effect of suppressing immune response compared to the dNP2-ctCTLA-4 group [2]: comparable effect; effect of suppressing immune response (decrease of IL-17 and increase of Foxp3) ([2]; listed as Example 4): the activity of inhibiting immune cells is significantly superior
PPTEPECE (P) [motif of CTLA4] | – | did not show significant difference from the dNP2 group or the Th17 group | –
RRRWCKRRRGGAMLAAASAMLAAAS (AP-K2 KA) [negative control, lysine and arginine residues of AP-K2 replaced with alanine] | – | decreased slightly | –
RRRWCKRRRGGAMLKKRSAMLKKRS (AP-K2 1KA) | – | decreased significantly | –
RRRWCKRRRGGKALKKRSKALKKRS (AP-K2 MA) | – | – | order of the reduction of IL-17 and the increase of Foxp3 among AP-K2 variants [2]: in the order of the AP-K2 SA group, the AP-K2 2KA group, the AP-K2 3KA group and the AP-K2 MA group
RRRWCKRRRGGKMAKKRSKMAKKRS (AP-K2 LA) | – | slightly decreased function of AP-L2 | –
RRRWCKRRRGGKMLAKRSKMLAKRS (AP-K2 2KA) | – | – | order of the reduction of IL-17 and the increase of Foxp3 among AP-K2 variants [2]: in the order of the AP-K2 SA group, the AP-K2 2KA group, the AP-K2 3KA group and the AP-K2 MA group
RRRWCKRRRGGKMLKARSKMLKARS (AP-K2 3KA) | – | – | order of the reduction of IL-17 and the increase of Foxp3 among AP-K2 variants [2]: in the order of the AP-K2 SA group, the AP-K2 2KA group, the AP-K2 3KA group and the AP-K2 MA group
RRRWCKRRRGGKMLKKASKMLKKAS (AP-K2 RA) | – | decreased significantly | –
RRRWCKRRRGGKMLKKRAKMLKKRA (AP-K2 SA) | – | – | order of the reduction of IL-17 and the increase of Foxp3 among AP-K2 variants [2]: in the order of the AP-K2 SA group, the AP-K2 2KA group, the AP-K2 3KA group and the AP-K2 MA group
SPLTTGV (S) [motif of CTLA4] | – | did not show significant difference from the dNP2 group or the Th17 group | –
YFIPIN (Y2) [Example Y2, motif of CTLA4] | – | did not show significant difference from the dNP2 group or the Th17 group | –
YVKM (Y1) [Example Y1, motif of CTLA4] | – | did not show significant difference from the dNP2 group or the Th17 group | –
B1 | significantly larger number of infiltrated lymphocytes in the spinal cord as compared to the PBS group | – | clinical symptoms (clinical score) [1]: significantly lower clinical symptoms as compared to the PBS group
